Test system: Aβ1-40 production in rat cortical neurons
Test: Aβ1-40 level in conditioned medium of rat cortical neurons (rodent Aβ immunoassay)
Type: cell-based
Conditions: rat cortical neurons of 7 days of culture, treated at various concentrations for 7 days (FIG. 2B); read-out: IC50 for reduction of Aβ1-40 level in conditioned medium
Method: Mouse monoclonal antibody specific for the N-terminal of mouse/rat Aβ was immobilized by incubation of 96-well polystyrene plate with 50 ul of the antibody at 4 ug/ml in each well in a coating buffer (0.1 M NaHCO3 pH 8.2) overnight at 4° C. The plates were washed thereafter each step for 3 times with 200 μl/well PBST (PBS with 0.5% Tween-20). The wells were then sequentially incubated with 50 μl/well test samples containing mouse/rat or human Aβ1-40 or Aβ1-42 overnight at 4° C. Primary rabbit antibodies specific for either Aβ1-40 or Aβ1-42 (BioSource International Inc., Camarillo, Calif.) were added to each well at 50 ul/well for a final concentration of 400 ng/ml, and incubated at room temperature. […] The color signal was measured at […] in a spectrophotometer. […] This indicates the specificity of the assay for rodent Aβ The assay detected both mouse/rat Aβ1-40 and Aβ1-42 at levels less than 15 ng/ml (FIG. 1C).
The amount released can be reduced by a γ-secretase inhibitor. […] The cortical neurons of 7 days of culture were treated with gamma-secretase inhibitor L-685,458 at various concentrations for 7 days and the Aβ1-40 level was measured in the conditioned medium. […]
The effect of nicotinic receptor ligands on Aβ production was analyzed by measurement of the Aβ1-40 level in the conditioned media of rat cortical cultures treated with α7 nAChR selective ligands for 7 days. […]

- IC50: 431 nM
Structure (SMILES): CC(C)C[C@H](NC(=O)[C@H](Cc1ccccc1)C[C@@H](O)[C@H](Cc1ccccc1)NC(=O)OC(C)(C)C)C(=O)N[C@@H](Cc1ccccc1)C(N)=O [L-685,458]

— patent US20080234311A1, “IMMUNOASSAY FOR DETECTION AND QUANTIFICATION OF AMYLOID-beta PEPTIDES” (priority 2006, published 2008)
